Results as given in patent US7842683B2, “Neurotherapeutic compositions and method” (Revaax Pharmaceuticals, LLC, priority 1999, dated 2010).

Columns and labels:
male golden hamsters = test: Resident/intruder paradigm of offensive aggression; assay type: in vivo, Syrian golden hamsters (Mesocricetus auratus); conditions: D vs L isomer, 50 μg/kg IP
Experimental: Male Syrian golden hamsters (Mesocricetus auratus) (140-150 g) obtained from Harlan Sprague-Dawley Laboratories (Indianapolis, Ind.) were housed individually in Plexiglas cages (24 cm×24 cm×20 cm), maintained on a reverse light:dark cycle (14L:10D; lights on at 19:00 hr) and provided food and water ad libitum. Animals were acclimated to the reverse light:dark cycle for at least two weeks before testing. All behavioral tests were conducted during the dark phase of the circadian cycle. All animals were acquired and cared for in accordance with the guidelines published in the Guide for the Care and Use of Laboratory Animals (National Institutes of Health Publications No. 85-23, Revised 1985).
(§1) Agonistic behavior can be classified as either offensive or defensive aggression (Blanchard and Blanchard, 1977; Adams, […]; Albert and Walsh, 1984). Offensive aggression is characterized by the aggressor initiating an attack on an opponent, while defensive aggression lacks active approach. Both types of aggression have their own unique neurobehavioral systems. The stimuli that elicit offensive and defense attack are different, as are the sequences of behaviors that accompany each agonistic response. […] Offensive aggression is easily studied using male golden hamsters tested in a resident/intruder paradigm, an established model of offensive aggression (Ferris and Potegal 1988). Placing an unfamiliar male hamster into the home cage of another male hamster elicits a well-defined sequence of agonistic behaviors from the resident that includes offensive aggression.
Hamsters are nocturnal and as such all behavioral tests were performed during the first four hrs of the dark phase under dim red illumination. The resident was scored for offensive aggression, e.g., latency to bite the intruder, the total number of bites, total contact time with the intruder and flank marking over a 10 min test period (Ferris and Potegal, 1988). Flank marking is a form of olfactory communication in which a hamsters arches its back and rubs pheromone producing flank glands against objects in the environment (Johnson, 1986).
Parametric data, i.e., latencies and contact time, were analyzed with a one-way ANOVA followed by Newman-Keuls post hoc tests. Non parametric data, i.e., number of bites and flank marks, were analyzed with Kruskal-Wallis tests followed by Mann-Whitney U tests to determine differences between groups. Two sample comparisons were analyzed with paired and unpaired t-Tests for parametric data and Wilcoxon and Mann-Whitney Tests for paired and unpaired non-parametric data, respectively.
as §1, with “by an” for “by the”, “an opponent; while,” for “an opponent, while”, “Potegal 1988) in the context of defending the home burrow.” for “Potegal 1988).”
Hamsters are nocturnal and as such all behavioral tests were performed during the first four hrs of the dark phase under dim red illumination. The resident was scored for offensive aggression, e.g., latency to bite the intruder, the total number of bites, total contact time with the intruder and flank marking over a 10 min test period (Ferris and Potegal, 1988). […]

[1] = human, in vivo; cited from earlier work
bacteria = conditions: cited from earlier work
Male Wistar rats = test: Elevated plus-maze (anxiolytic activity); assay type: in vivo, rat; conditions: 1 mM, 2 ul into lateral ventricle, 60 min
Excerpt: The elevated plus-maze was developed for the detection of anxiolytic and anxiogenic drug effects in the rat (Pellow et al., 1985). The method has been validated behaviorally, physiologically, and pharmacologically. The plus-maze consists of two open arms and two enclosed arms. […] Conversely, anxiogenic compounds like yohimbin or amphetamines reduce open arm entries and time spent in the open arms.
Male Wistar rats weighing 250-300 g were group housed in a normal 12:12 light-dark cycle light on at 0800 hr and provide food and water ad libitum. The plus-maze consisted of two open arms, 50×10 cm, and two enclosed arms 50×10×40 cm with an open roof, arranged such that the two open arms were opposite to each other. The maze was elevated to a height of 50 cm.
Eight animals were tested in the plus-maze 90 min following IP injection with 50 μg/kg Mox and saline vehicle. The order of treatments was counter balanced with at least 48 hrs between injections. At the start of the experiment the animal was place in the center of the plus maze facing the closed arm. Over a five min observation period, animals were scored for the latency to enter the closed arm, time spent in the closed arm and the number of open arm entries following the first occupation of the closed arm (FIG. 7).
Because Mox and CDP have different bioavailability profiles, e.g. brain penetrance, their CNS activity could not be compared by giving systemic injections of equimolar concentrations of each drug. Instead it was necessary to give both drugs directly into the cerebroventricular system to by pass the blood brain barrier. Animals were anesthetized with sodium pentobarbital (50 mg/kg), implanted with microinjection guide cannulae aimed at the lateral ventricle and allowed to recover for two days before testing. To groups of six animals each were tested with Mox or CDP. Each animals received a injection of drug and 0.9% NaCl vehicle on two separate days. The order of injections was counterbalanced and separated by two days. Both Mox and CDP were prepared in 0.9% NaCl at a concentration of 1 mM. All injections were given in a volume of 2 ul over 10 secs in fully conscious, restrained animals. Sixty min later animals were tested in the plus-maze for a 3 min observation period and scored for behaviors as noted previously.
The elevated plus-maze was developed for screening anxiolytic and anxiogenic drug effects in the rat (Pellow et al., 1985). The method has been validated behaviorally, physiologically, and pharmacologically. The plus-maze consists of two open arms and two enclosed arms. […] Conversely, anxiogenic compounds like yohimbin or amphetamines reduce open arm entries and time spent in the open arms.
Male Wistar rats weighing 250-300 g were group housed in a normal 12:12 light-dark cycle with light on at 0800 hr and provided food and water ad libitum. The plus-maze consisted of two open arms, 50 cm long, 10 cm wide, with walls 40 cm high made of clear Plexiglas. The two closed arms had the same dimensions but included a roof. The Plexiglas for the closed arms was painted black. Each pair of arms was arranged opposite to each other to form the plus-maze. The maze was elevated to a height of 50 cm. Eighteen animals were tested in the plus-maze 90 min following the IP injection of 1.0 μg/kg CLAV, 50 or vehicle control in a volume of ca. 0.3 ml. The order of treatments was counter balanced with at least 48 hrs between injections. At the start of the experiment, the animal was placed at the end of one of the open arms. Over a five min observation period, animals were scored for the latency to enter the closed arm, time spent in the closed arm and the number of open arm entries following the first occupation of the closed arm. The study produced tables of repeated measures. The data between treatments were compared with a two-way, repeated measures ANOVA followed by Bonferroni post hoc tests. […]

golden hamsters = test: Seed finding model of anxiety; assay type: in vivo, Syrian golden hamsters (Mesocricetus auratus); conditions: dose not given
Excerpt: Clavulanic acid (CLAV) is structurally similar to the beta-lactam antibiotics. A most robust and simple bioassay for screening beta-lactams for CNS activity is the golden hamster seed finding model of anxiety. Briefly, hamsters are deprived of food overnight. The following day they are exposed to the additional stress of being taken from their home cage and placed in a novel environment for a few minutes. This manipulation stimulates the release of the stress hormone cortisol (FIG. 37). During their absence from the home cage, sunflower seeds are hidden under the bedding in one of the corners. When returned to the home cage, hamsters routinely scramble along the walls for 1-2 min before settling down, locating and eating the seeds. However, animals treated with the benzodiazepine anxiolytic chlordiazepoxide find seeds in less than 10 sec.
Male, Syrian golden hamsters (Mesocricetus auratus) (120-130 g) obtained from Harlan Sprague-Dawley Laboratories (Indianapolis, Ind.) were housed individually in Plexiglas cages (24 cm×24 cm×20 cm), maintained on a reverse light:dark cycle (14L:10D; lights on at 19:00 hr) and provided food and water ad libitum. A range of concentrations of CLAV (saline vehicle, 0.1, 1.0, 10, 100 1,000 ng/kg) were tested in six groups of hamsters (4-8/group)(FIG. 25). All tests were conducted during the dark phase of the circadian cycle under dim red illumination. Prior to testing all animals were fasted for 20-24 hrs. Ninety min after intraperitoneal (IP) injection of drug, animals were taken from their home cage and placed into a holding cage for 2 min. During their absence, six sunflower seeds were buried under the bedding in one corner of their home cage. Animals were placed back into their home cage randomly facing any one of the empty corners and timed for their latency to find the seeds in a five min observation period. Latency times were analyzed with a one-way ANOVA followed by Scheffe's post hoc tests. Assumption of equal variances was tested (Hartley's F-max=2.1 p>0.05)
It was hypothesized that CLAV functioned as an anxiolytic in the seed finding assay by blocking NAALADase activity in the brain. If this notion were true then it would be predicted that drugs known to block NAALADase should also enhance seed finding. To this end, animals were treated with N-acetyl-beta-aspartyl-glutamic acid (beta-NAAG), a competitive inhibitor of NAALADase (Serval et al., 1992) and tested in the seed finding model of anxiety. The study was similar to that outlined in Section I with one notable exception. […] Beta-NAAG (FW 304) was given in a dose of 3 ng in a volume of 1 μl saline ICV. The average adult hamster brain weights ca. 1.2 g of which 22% is extracellular fluid. The estimated beta-NAAG concentration was 11 ng/ml or 36 nM.
Two groups of six animals each were fasted overnight as previously described and tested the following day. One group was treated with beta-NAAG and the other saline vehicle and one hr later timed for latency to find the hidden sunflower seeds. A Student t-test for unpaired data was used for statistical comparisons.

rats = test: Motor activity in an open field (plus-maze animals); assay type: in vivo, rat; conditions: 1 mM direct injection into the brain, 30 min prior to plus-maze
Experimental: However, this depression of motor activity disappears following repeated administration of CDP over several days. […] To control for any non-specific effects of Mox and CDP on motor activity following their direct injection into the brain, animals were tested in the open field 30 min prior to testing in the plus (FIG. 18).
Immediately after each of the plus-maze tests reported above in Section II, animals were tested for general motor activity in an “open field.” Animals were placed into a large clean Plexiglas cage (48×32×40 cm) devoid of bedding. This open field was delineated into equal quadrants by tape on the underside of the cage. Animals were scored for motor activity by counting the number of quadrants traversed in 1 min.

SMILES	contact time (male golden hamsters)	flank marking (male golden hamsters)	isomer affecting offensive aggressive behavior (male golden hamsters)	bite latency (male golden hamsters; 90 min)	number of bites (male golden hamsters; 90 min)	unbound fraction to plasma protein vs L isomer [1]	antibacterial activity (bacteria)	time spent in the closed arm (dark) (Male Wistar rats)	latency to enter the closed arm (Male Wistar rats; 3 min observation)	time to find seeds (golden hamsters)	general motor activity in the open field (rats)
CO[C@@]1(NC(=O)C(C(=O)O)c2ccc(O)cc2)C(=O)N2C(C(=O)O)=C(CSc3nnnn3C)CO[C@@H]21 (some centres unmarked) [D Mox]	no significant difference	no significant difference	active isomer	significantly increased	reduced	greater unbound fraction	has antibacterial activity	–	–	–	–
CNC1=Nc2ccc(Cl)cc2C(c2ccccc2)=[N+]([O-])C1 [CDP, Chlordiazepoxide]	–	–	–	–	–	–	–	no effect	no effect	less than 10 sec	no significant effect
